The record followed here is US9233078B2, “Nanoparticles comprising a non-ionizable polymer and an Amine-functionalized methacrylate copolymer” (Bend Research, Inc., priority 2007, dated 2016).

Values after ≈ are worked out from the molar mass of the structure shown.

Series [1] is described as follows: Aqueous solubility of the drugs. The format is physicochemical. As to conditions: water.
The conditions of series [2]: for Observations: pH 6.5. As to the method: The polymer is a poorly aqueous soluble non-ionizable polymer. […] An appropriate PBS solution is an aqueous solution comprising 20 mM sodium phosphate (Na2HPO4), 47 mM potassium phosphate (KH2PO4), 87 mM NaCl, and 0.2 mM KCl, adjusted to pH 6.5 with NaOH. A test to determine whether the polymer is poorly aqueous soluble may be performed as follows. The polymer is initially present in bulk powder form with average particle sizes of greater than about 1 micron. The polymer alone is administered at a concentration of 0.2 mg/mL to the PBS solution and stirred for approximately 1 hour at room temperature. Next, a nylon 0.45 μm filter is weighed, and the polymer solution is filtered. The filter is dried overnight at 40° C., and weighed the following morning. The amount of polymer dissolved is calculated from the amount of polymer added to the PBS solution minus the amount of polymer remaining on the filter (mg). […] First, 0.2 mg/mL of the polymer was added to a PBS solution consisting of 20 mM Na2HPO4, 47 mM KH2PO4, 87 mM NaCl, and 0.2 mM KCl, adjusted to pH 6.5 with NaOH. The polymer was stirred in the PBS solution for approximately 1 hour at room temperature. Next, the polymer solution was filtered through a nylon 0.45 μm filter that was weighed dry prior to filtration. The filter was dried overnight at 40° C., and weighed the following morning. The amount of soluble polymer was calculated from the amount of polymer added to form the polymer solution minus the amount of polymer remaining on the filter.

The nature of series [3]: Free drug analysis, 100,000-dalton cutoff filtration and HPLC. The format is physicochemical. The conditions noted are these: 2.5 mgA/mL suspension in deionized water with dextrose, about 300 mOsm. Here is the method:
The suspension was filtered using a centrifuge tube filter with a 100,000-dalton molecular-weight cutoff. The filtrate solution was assayed by high-performance liquid chromatography (HPLC).

The nature of another series: Log P of Drug 1. As to conditions: octanol/water. The class given is physicochemical. The source says: The first property of hydrophobic drugs is that they are extremely hydrophobic. Log P, defined as the base 10 logarithm of the ratio of the drug solubility in octanol to the drug solubility in water, is a widely accepted measure of hydrophobicity. By “extremely hydrophobic” is meant that the Log P value of the drug is at least 4.0, preferably at least 4.5, and most preferably at least 5.0. Log P may be measured experimentally or calculated using methods known in the art. When using a calculated value for Log P, the highest value calculated using any generally accepted method for calculating Log P is used. Calculated Log P values are often referred to by the calculation method, such as Clog P, Alog P, and Mlog P. The Log P may also be estimated using fragmentation methods, such as Crippen's fragmentation method (27 J. Chem. Inf. Comput. Sci. 21 (1987)); Viswanadhan's fragmentation method (29 J. Chem. Inf. Comput. Sci. 163 (1989)); or Broto's fragmentation method (19 Eur. J. Med. Chem.-Chim. Theor. 71 (1984). Preferably the Log P value is calculated by using the average value estimated using Crippen's, Viswanadhan's, and Broto's fragmentation methods.

In series [1], `Cc1ccc(C)c(Cc2nc(CO)nn2-c2ccc(S(N)(=O)=O)cc2F)c1` [Drug 3] yielded a solubility of roughly 650 µg/mL (≈ 1660 µM). In the case of cellulose triacetate, in series [2], the “Amount Soluble at pH 6.5” value is recorded as less than 0.001 mg/mL and the Observations result is recorded as “Fine particle”. `CC[C@@H]1C[C@H](N(Cc2cc(C(F)(F)F)cc(C(F)(F)F)c2)C(C)=O)c2cc(C(F)(F)F)ccc2N1C(=O)OC(C)C` [Drug 2, [2R,4S] 4-[acetyl-(3,5-bis-trifluoromethyl-benzyl)-amino]-2-ethyl-6-trifluoromethyl-3,4-dihydro-2H-quinoline-1-carboxylic acid isopropyl ester]: the solubility in series [1] was less than 1 µg/mL. `CCNC1CN(CCCOC)S(=O)(=O)c2sc(S(N)(=O)=O)cc21` (centres unmarked) [Drug 5, brinzolamide, reference compound] had a solubility in series [1] of roughly 490 µg/mL (≈ 1280 µM). On to ethylcellulose, for which, in series [2], the “Amount Soluble at pH 6.5” value is less than 0.001 mg/mL and the Observations result was “Fine particle”.

Take `Cc1onc(-c2ccccc2)c1-c1ccc(S(N)(=O)=O)cc1` [Drug 1, 4-(5-methyl-3-phenyl-4-isoxazolyl) benzenesulfonamide]: the “Free Drug” value in series [3] came to 11 µg/mL. Moreover, in “Log P of Drug 1”, the logP is roughly 3. The compound further registered a solubility in series [1] of roughly 10 µg/mL (≈ 31.8 µM). In turn, `COCCN(C)Cc1nc(Cc2cccc(C)c2)n(-c2ccc(S(N)(=O)=O)cc2F)n1` [Drug 4] had a solubility in series [1] of roughly 740 µg/mL (≈ 1650 µM).
